{"source": "patent US8541598B2", "about": "“Biodegradable solvents for the chemical industry” (Dublin City University, priority 2007, dated 2013)", "key": {"[1]": {"test_system": "Pseudomonas aeruginosa, Escherichia coli, Klebsiella sp., Salmonella sp., Staphylococcus aureus, Enterococcus sp., Bacillus subtilis", "experiment": "Antimicrobial activity / minimum inhibitory concentrations on seven strains of bacteria", "type": "cell-based", "conditions": "seven strains of bacteria", "method": "Seven strains of bacteria were used in the assessment of the antimicrobial activity of the ILs claimed: 4 gram negative and three gram positive as shown below.\nA wide concentration range was tested (0-20000 μg/ml). The concentrations screened for antibacterial activity are generally from 2 μg/ml to 1000 μg/ml (Table 6). […] The concentration range screened for the ILs containing ethers was up to 20000 μg/ml. At these high concentrations a lack of antibacterial activity is a significant result."}, "E. coli": {"test_system": "E. coli", "experiment": "Percentage kill of bacteria by KG20", "type": "cell-based, Escherichia coli", "text": "(§1) A test reference study with 1-methyl-3-decyloxy-carbonyl methylimidazole bromide salt KG20, known to be toxic due to the long alkyl chain, has been completed to provide reference data. This experiment compares, for the same side chain length, the impact of the presence of the oxygen (e.g. KG15) on toxicity."}, "P. aeruginosa": {"test_system": "P. aeruginosa", "experiment": "Percentage kill of bacteria by KG20", "type": "cell-based, Pseudomonas aeruginosa", "text": "as §1"}, "Enterococcus sp.": {"test_system": "Enterococcus sp.", "experiment": "Percentage kill of bacteria by KG20", "type": "cell-based", "text": "as §1"}, "Klebsiella sp.": {"test_system": "Klebsiella sp.", "experiment": "Percentage kill of bacteria by KG20", "type": "cell-based", "text": "as §1"}, "Salmonella sp.": {"test_system": "Salmonella sp.", "experiment": "Percentage kill of bacteria by KG20", "type": "cell-based", "text": "as §1"}, "S. aureus": {"test_system": "S. aureus", "experiment": "Percentage kill of bacteria by KG20", "type": "cell-based, Staphylococcus aureus", "text": "as §1"}, "B. subtilis": {"test_system": "B. subtilis", "experiment": "Percentage kill of bacteria by KG20", "type": "cell-based, Bacillus subtilis", "text": "as §1"}, "microbes": {"test_system": "microbes", "conditions": "literature (Bodor et al.); cited from earlier work"}}, "note": "Entries after “also recorded” stand apart in the source; their conditions may differ.", "data": [{"molecule": "CCCCCCCCCCOC(=O)Cn1cc[n+](C)c1.[Br-]", "note": "[KG20, 3-methyl-1-(decanoxycarbonylmethyl)imidazolium bromide]", "values": [{"measurement": "toxicity / antibacterial activity in words", "setting": "[1]", "result": "toxic to all the different bacteria screened; also recorded: potent antibacterial"}, {"measurement": "Percentage kill", "setting": "E. coli; 3.9 μg/ml", "result": 10, "unit": "%"}, {"measurement": "Percentage kill", "setting": "E. coli; 7.8 μg/ml", "result": 8.5, "unit": "%"}, {"measurement": "Percentage kill", "setting": "E. coli; 15.62 μg/ml", "result": 17, "unit": "%"}, {"measurement": "Percentage kill", "setting": "E. coli; 31.25 μg/ml", "result": 28, "unit": "%"}, {"measurement": "Percentage kill", "setting": "E. coli; 62.5 μg/ml", "result": 37, "unit": "%"}, {"measurement": "Percentage kill", "setting": "E. coli; 125 μg/ml", "result": 92, "unit": "%"}, {"measurement": "Percentage kill", "setting": "E. coli; 250 μg/ml", "result": 92, "unit": "%"}, {"measurement": "Percentage kill", "setting": "E. coli; 500 μg/ml", "result": 82, "unit": "%"}, {"measurement": "Percentage kill", "setting": "E. coli; 1000 μg/ml", "result": 91, "unit": "%"}, {"measurement": "Percentage kill", "setting": "P. aeruginosa; 3.9 μg/ml", "result": 0, "unit": "%"}, {"measurement": "Percentage kill", "setting": "P. aeruginosa; 7.8 μg/ml", "result": 0, "unit": "%"}, {"measurement": "Percentage kill", "setting": "P. aeruginosa; 15.62 μg/ml", "result": 0, "unit": "%"}, {"measurement": "Percentage kill", "setting": "P. aeruginosa; 31.25 μg/ml", "result": 6, "unit": "%"}, {"measurement": "Percentage kill", "setting": "P. aeruginosa; 62.5 μg/ml", "result": 0, "unit": "%"}, {"measurement": "Percentage kill", "setting": "P. aeruginosa; 125 μg/ml", "result": 55.5, "unit": "%"}, {"measurement": "Percentage kill", "setting": "P. aeruginosa; 250 μg/ml", "result": 82, "unit": "%"}, {"measurement": "Percentage kill", "setting": "P. aeruginosa; 500 μg/ml", "result": 82, "unit": "%"}, {"measurement": "Percentage kill", "setting": "P. aeruginosa; 1000 μg/ml", "result": 100, "unit": "%"}, {"measurement": "Percentage kill", "setting": "Enterococcus sp.; 3.9 μg/ml", "result": 6.5, "unit": "%"}, {"measurement": "Percentage kill", "setting": "Enterococcus sp.; 7.8 μg/ml", "result": 6, "unit": "%"}, {"measurement": "Percentage kill", "setting": "Enterococcus sp.; 15.62 μg/ml", "result": 23, "unit": "%"}, {"measurement": "Percentage kill", "setting": "Enterococcus sp.; 31.25 μg/ml", "result": 18.7, "unit": "%"}, {"measurement": "Percentage kill", "setting": "Enterococcus sp.; 62.5 μg/ml", "result": 48.7, "unit": "%"}, {"measurement": "Percentage kill", "setting": "Enterococcus sp.; 125 μg/ml", "result": 49.5, "unit": "%"}, {"measurement": "Percentage kill", "setting": "Enterococcus sp.; 250 μg/ml", "result": 83.4, "unit": "%"}, {"measurement": "Percentage kill", "setting": "Enterococcus sp.; 500 μg/ml", "result": 84, "unit": "%"}, {"measurement": "Percentage kill", "setting": "Enterococcus sp.; 1000 μg/ml", "result": 96.4, "unit": "%"}, {"measurement": "Percentage kill", "setting": "Klebsiella sp.; 3.9 μg/ml", "result": 0, "unit": "%"}, {"measurement": "Percentage kill", "setting": "Klebsiella sp.; 7.8 μg/ml", "result": 0, "unit": "%"}, {"measurement": "Percentage kill", "setting": "Klebsiella sp.; 15.62 μg/ml", "result": 0, "unit": "%"}, {"measurement": "Percentage kill", "setting": "Klebsiella sp.; 31.25 μg/ml", "result": 0, "unit": "%"}, {"measurement": "Percentage kill", "setting": "Klebsiella sp.; 62.5 μg/ml", "result": 7, "unit": "%"}, {"measurement": "Percentage kill", "setting": "Klebsiella sp.; 125 μg/ml", "result": 21, "unit": "%"}, {"measurement": "Percentage kill", "setting": "Klebsiella sp.; 250 μg/ml", "result": 64, "unit": "%"}, {"measurement": "Percentage kill", "setting": "Klebsiella sp.; 500 μg/ml", "result": 68.2, "unit": "%"}, {"measurement": "Percentage kill", "setting": "Klebsiella sp.; 1000 μg/ml", "result": 91.8, "unit": "%"}, {"measurement": "Percentage kill", "setting": "Salmonella sp.; 3.9 μg/ml", "result": 0, "unit": "%"}, {"measurement": "Percentage kill", "setting": "Salmonella sp.; 7.8 μg/ml", "result": 0, "unit": "%"}, {"measurement": "Percentage kill", "setting": "Salmonella sp.; 15.62 μg/ml", "result": 0, "unit": "%"}, {"measurement": "Percentage kill", "setting": "Salmonella sp.; 31.25 μg/ml", "result": 0, "unit": "%"}, {"measurement": "Percentage kill", "setting": "Salmonella sp.; 62.5 μg/ml", "result": 10, "unit": "%"}, {"measurement": "Percentage kill", "setting": "Salmonella sp.; 125 μg/ml", "result": 58, "unit": "%"}, {"measurement": "Percentage kill", "setting": "Salmonella sp.; 250 μg/ml", "result": 73.5, "unit": "%"}, {"measurement": "Percentage kill", "setting": "Salmonella sp.; 500 μg/ml", "result": 88, "unit": "%"}, {"measurement": "Percentage kill", "setting": "Salmonella sp.; 1000 μg/ml", "result": 86, "unit": "%"}, {"measurement": "Percentage kill", "setting": "S. aureus; 3.9 μg/ml", "result": 66, "unit": "%"}, {"measurement": "Percentage kill", "setting": "S. aureus; 7.8 μg/ml", "result": 90, "unit": "%"}, {"measurement": "Percentage kill", "setting": "S. aureus; 15.62 μg/ml", "result": 88.2, "unit": "%"}, {"measurement": "Percentage kill", "setting": "S. aureus; 31.25 μg/ml", "result": 86.4, "unit": "%"}, {"measurement": "Percentage kill", "setting": "S. aureus; 62.5 μg/ml", "result": 90.3, "unit": "%"}, {"measurement": "Percentage kill", "setting": "S. aureus; 125 μg/ml", "result": 80.7, "unit": "%"}, {"measurement": "Percentage kill", "setting": "S. aureus; 250 μg/ml", "result": 93.8, "unit": "%"}, {"measurement": "Percentage kill", "setting": "S. aureus; 500 μg/ml", "result": 96, "unit": "%"}, {"measurement": "Percentage kill", "setting": "B. subtilis; 3.9 μg/ml", "result": 0, "unit": "%"}, {"measurement": "Percentage kill", "setting": "B. subtilis; 7.8 μg/ml", "result": 0, "unit": "%"}, {"measurement": "Percentage kill", "setting": "B. subtilis; 15.62 μg/ml", "result": 0, "unit": "%"}, {"measurement": "Percentage kill", "setting": "B. subtilis; 31.25 μg/ml", "result": 0, "unit": "%"}, {"measurement": "Percentage kill", "setting": "B. subtilis; 62.5 μg/ml", "result": 0, "unit": "%"}, {"measurement": "Percentage kill", "setting": "B. subtilis; 125 μg/ml", "result": 80.2, "unit": "%"}, {"measurement": "Percentage kill", "setting": "B. subtilis; 250 μg/ml", "result": 81.5, "unit": "%"}, {"measurement": "Percentage kill", "setting": "B. subtilis; 500 μg/ml", "result": 83.2, "unit": "%"}, {"measurement": "Percentage kill", "setting": "B. subtilis; 1000 μg/ml", "result": 100, "unit": "%"}]}, {"molecule": "CCCCCCCCCCCC(=O)OCn1cc[n+](C)c1.[Cl-]", "note": "[compound 6, 1-[(n-Dodecanoyloxy)methyl]-3-methylimidazolium Chloride]", "values": [{"measurement": "antimicrobial activity in words", "setting": "microbes", "result": "effective antimicrobial activity at ppm concentrations; also recorded: potent antibacterials"}]}]}
